Measured values as given in US20260209152A1, “Substituted Hydroxystilbene Compounds and Derivatives, Synthesis and Uses Thereof” (Kynan Duke IP, LLC, priority 2019, published 2026).
“And” between values parts separate entries of the source, which are not always exact repeats. Identical values can stand only once. Like-named read-outs stand apart in the source and are kept apart here.

Key:
Kidney A-498 = assay: CellTiter Glo cell viability assay; assay type: cell-based, human
How it was run: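 A498 human kidney cancer cells were seeded in 96-well plates in quadruplicate at 1.7*10^3 cells/well and exposed to serial dilutions of test compound. Viability was read with the Promega CellTiter Glo Luminescence assay on a Thermo Scientific Varioskan LUX plate reader. The half-maximal inhibitory concentration was obtained by nonlinear regression in GraphPad Prism 7.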

[1] = Cell viability in keratinocyte IL-8 assay (assay number 1244); assay type: cell-based, human; conditions: human, primary human keratinocytes induced with IL-17A and TNFα
From the text: (§1) • 1. Determination of inhibition of CCL2 release from IL-4, IL-13, IL-22 and IFN-γ-stimulated primary human keratinocytes [assay number 1280] and determination of the effect on cell viability [assay number 1243]. • 2. Determination of inhibition of IL-8 release from IL-17A and TNFα-induced primary human keratinocytes [assay number 1250] and determination of the effect on cell viability [assay number 1244]. • 3. Determination of inhibition of IL-17A secretion from human PBMC stimulated with antiCD3/antiCD28-coated beads [assay number 1321] and determination of the effect on cell viability [assay number 1322]. • 4. Determination of inhibition of IL-4 and IL-2 secretion from human CD4-positive T-cells stimulated with antiCD2/antiCD3/antiCD28-coated beads [assay number 1297, 1298] and determination of the effect on cell viability [assay number 1299].

[2] = tested on: primary human keratinocytes; assay: as above; assay type: cell-based; conditions: Homo sapiens
From the text: as §1

[3] = tested on: IL-4 secretion from human CD4-positive T-cells stimulated with antiCD2/antiCD3/antiCD28-coated beads; assay: T-cell IL-4 assay (assay number 1297, 1298); assay type: cell-based; conditions: for Max Eff.: IL-4 (1298): highest effect as percentage of control maximum effect; for Emax: read-out: maximum efficacy, IL-4 secretion
Method: (§2) Inhibition of IL-4 and IL-2 secretion from human CD4-positive T-cells stimulated with antiCD2/antiCD3/antiCD28-coated beads. LEO Pharma Open Innovation assay number 1297, 1298, 1299.
The inflammatory skin disease atopic dermatitis is characterized by the T-cell cytokines IL-4, IL-13 and IL-22. In the present assay, human T-cells are stimulated with beads coated with antibodies against CD2, CD3 and CD28 to activate the T-cell receptor.
(§3) Then the level of secreted of IL-4 is measured in the culture supernatant using electrochemiluminescence (MSD kits, Meso Scale Discovery), IL-2 is measured by proximity homogenous time-resolved fluorescence (HTRF) and the amount of living cells is measured by addition of resazurin (PrestoBlue®) to allow identifying compounds that inhibit T-cell proliferation or viability.
(§4) • Peripheral blood mononuclear cells (PBMC) are isolated from fresh human buffy coats by centrifugation on Lymphoprep® following instructions from Sebmate™ (Stemcell). • The cells are resuspended in 30 ml of PBS+2% Serum and counted. • CD4 positive T-cells are isolated from freshly isolated PBMC using EasySep™ humane CD4+ T-cell Isolation Kit (Catalog #17952) and following the manufacturer's protocol. • Cells are spun down and resuspended in freezing medium (X-vivo 15+10% FBS+5% DMSO) • Cells are frozen in aliquots of 3×10^7 cells/vial matching one 384 plate. Cells are place in Coolcell box and place in −80° C. freezer for one day then transferred to the −150° C. freezer in a prechilled box.
(§5) • Prepare assay medium: 500 ml X-Vivo 15+5 ml Glutamax (2 mM final)+5 ml pen/strep (100 U/ml final). • Add 5 μL medium to the wells of a 384 well plate (Greiner cat. No 788986). • CD4+ Cells: Thaw frozen cells from −150° C. freezer in 37° C. bath, and pipette the cells into 10 ml medium. Spin 10 min @170 g. • Resuspend pellet in 3.5 ml per 2.5×10^7 cells and add 10 μL per well to the plate (40000 cells/well) • Test compounds: Prepare compound-containing source plate, i.e. titrations in DMSO to be transferred to the assay plate. • Add 25 nL compounds and controls from the source plate to the assay plate (with cells). • Beads (T Cell Activation/Expansion Kit-human, Miltenyi Biotech, cat. no. 130-091-441): Coat beads with antibodies according to the kit procedure. • Add 10 μL beads to each well except for the negative controls. One bead per cell. Add 10 μL medium to the negative controls. • Incubate plates at 37° C., 5% CO2/95% air for 2 days.
(§6) • Remove plates from incubation and equilibrate to room temperature for 30 minutes. • IL-4 concentration in 10 μL supernatant is measured using an MSD IL-4 384-plate kit (Custom made) according to manufacturer protocol. • IL-2 concentrations in the supernatant is measured by an IL-2 HTRF kit, CisBio, cat. No 62HIL02PEH. • Add 4 μL medium to white proxi 384-well plates • Add 1 μL supernatant. • Add 4 μL mHTRF mix (each diluted 1:300 in ⅔ reconstitution buffer and ⅓ assay medium). • Spin the plates for 1 minute at 170 g • Seal and incubate overnight and read fluorescence in a plate reader • The amount of viable cells is measured by PrestoBlue® reagent • Add 15 μL diluted PrestoBlue® reagent (resazurin) corresponding to 2.5 μL Prestoblue/well to the assay plate. • Incubate overnight at 37° C./5% CO2. The fluorescence in the wells is measured (Ex615/Em 535).
(§7) IL-4 concentration in the supernatants is measured using electrochemiluminescence (MSD kits, Meso Scale Discovery). IL-2 concentration in the supernatants is measured using homogeneous time-resolved fluorescence resonance (TR-FRET). The assay is quantified by measuring fluorescence at 665 nm (proportional to IL-2 concentration) and 620 nm (control). A ratio 665/620*1000 is calculated.
(§8) The capacity of the test compound to inhibit IL-4 and IL-2 release is normalized to the signal in the negative control wells with un-stimulated T-cells.

[4] = tested on: IL-2 secretion from human CD4-positive T-cells stimulated with antiCD2/antiCD3/antiCD28-coated beads; assay: T-cell IL-2 assay (assay number 1297, 1298); assay type: cell-based; conditions: for Max Eff.: IL-2 (1297): highest effect as percentage of control maximum effect; for EC50: inhibition of IL-2 secretion, human CD4-positive T-cells, read-out: Abs EC50: IL-2 (1297)
Method: as §2, §3, §4, §5, §6, §7, §8

[5] = Homo sapiens, A498, Table 5A: 11 dilutions 3-0.00001 μM, single experiments Exp E-K, read-out: IC50
[6] = maximum reduction of cell viability in IL-8 assay, read-out: Max Eff.: Viab (1244)
[7] = Keratinocyte, cell viability in IL-8 assay, read-out: Abs EC50: Viab (1244)
[8] = inhibition of IL-4 secretion, human CD4-positive T-cells, read-out: Abs EC50: IL-4 (1298)
[9] = Homo sapiens, A498, 72 h, 3 Days of treatment, 18 2-fold dilutions 5-0.00003 μM, read-out: Average IC50
[10] = Homo sapiens, A498, 72 h, Table 4: 3 Days of treatment, 18 2-fold dilutions 5-0.00003 μM, Average (1, 8) or single Exp A-D, read-out: IC50
[11] = Homo sapiens, A498, A-498/HTB-44, 11 dilutions 3-0.00001 μM, Table 6, read-out: IC50
[12] = Homo sapiens, A498, Table 5A: 11 dilutions 3-0.00001 μM, average of experiments, read-out: IC50 average
[13] = keratinocyte IL-8 assay, read-out: maximum reduction of cell viability
[14] = keratinocyte IL-8 assay, read-out: EC50, cell viability
[15] = Homo sapiens, CD4 positive, read-out: EC50, inhibition of IL-4 secretion

SMILES | IC50 (Kidney A-498; [5]) | cytotoxicity [1, 6] | EC50 [2, 7] | Max Eff.: IL-4 (1298) [3] | EC50 [3, 8] | Max Eff.: IL-2 (1297) [4] | EC50 [4] | IC50 (Kidney A-498; [9]) | IC50 (Kidney A-498; [10]) | IC50 (Kidney A-498; [11]) | IC50 (Kidney A-498; [12]) | cytotoxicity [1, 13] | EC50 [2, 14] | EC50 [3, 15] | Emax ([3]; Homo sapiens, CD4 positive) | IC50 (Kidney A-498; Table 5A: 11 dilutions 3-0.00001 μM, single experiments Exp E-K, read-out: IC50) | effect on IL-4 release, in words [3] | inhibition of IL-2 secretion, in words [4] | Fold IC50 (Kidney A-498; IC50 of 1 [KYN-001] vs 8 [KYN-119], 3 Days) | IC50 (Kidney A-498; Table 5A: 11 dilutions 3-0.00001 μM, average of experiments, read-out: IC50 average)
COc1cc(/C=C/c2cc(O)cc(OC)c2CC=C(C)C)ccc1NC(=O)CN [Compound 31, (E)-2-amino-N-(4-(5-hydroxy-3-methoxy-2-(3-methylbut-2-en-1-yl)styryl)-2-methoxyphenyl)acetamide] | > 3 µM | 100% | 0.416 µM | 29% | 5 µM | 36% | 5 µM | – | – | – | – | – | – | – | – | – | – | – | – | –
COc1cc(/C=C/c2cc(O)cc(OC)c2CC=C(C)C)ccc1O [Compound 1, (E)-3-(4-hydroxy-3-methoxystyryl)-5-methoxy-4-(3-methylbut-2-en-1-yl)phenol] | – | 92% | 0.09 µM | 70% | 2.93 µM | 42% | 5 µM | 2.81 µM | 0.109 µM | 1.07 µM | 1.14 µM | – | – | – | – | – | – | – | – | –
CCOc1cc(O)cc(/C=C/c2ccc(NC(=O)C(=O)O)c(OC)c2)c1CC=C(C)C [Compound 35, (E)-2-((4-(3-Ethoxy-5-hydroxy-2-(3-methylbut-2-en-1-yl)styryl)-2-methoxyphenyl)amino)-2-oxoacetic acid] | > 3 µM | 72% | 5 µM | 11% | 5 µM | 16% | 5 µM | – | – | – | – | – | – | – | – | – | – | – | – | –
CCOc1cc(O)cc(/C=C/c2ccc(O)c(O)c2)c1CC=C(C)C [Compound 20, (E)-4-(3-Ethoxy-5-hydroxy-2-(3-methylbut-2-en-1-yl)styryl)benzene-1,2-diol] | – | 76% | 0.221 µM | 54% | 5 µM | 34% | 5 µM | – | – | 0.62 µM | – | – | – | – | – | – | – | – | – | –
COc1cc(/C=C/c2cc(O)cc(OC)c2CC=C(C)C)ccc1NC=O [Compound 27, (E)-N-(4-(5-hydroxy-3-methoxy-2-(3-methylbut-2-en-1-yl)styryl)-2-methoxyphenyl)formamide] | – | – | 0.032 µM | 79% | 0.507 µM | 46% | 5 µM | – | – | 0.642 µM | 0.728 µM | 83% | 0.032 µM | 0.507 µM | 79% | – | – | – | – | –
CCOc1cc(O)cc(/C=C/c2ccc(NC=O)c(OC)c2)c1CC=C(C)C [Compound 28, (E)-N-(4-(3-Ethoxy-5-hydroxy-2-(3-methylbut-2-en-1-yl)styryl)-2-methoxyphenyl)formamide] | 0.1 to 1 µM | – | 0.035 µM | 80% | 0.278 µM | 55% | 4.26 µM | – | – | 0.198 µM | – | 81% | 0.035 µM | 0.278 µM | 80% | 0.18 µM and 0.181 µM | medium potency effect | lower potency effect | – | –
CCOc1cc(O)cc(/C=C/c2ccc(O)c(OC)c2)c1CC=C(C)C [Compound 8, (E)-3-Ethoxy-5-(4-hydroxy-3-methoxystyryl)-4-(3-methylbut-2-en-1-yl)phenol] | – | 101% | 0.032 µM | 82% | 0.503 µM | 51% | 5 µM | 0.329 µM | 0.0103 µM | 0.401 µM | 0.36 µM | – | – | – | – | – | – | – | 8.5 | 0.43 µM
